From publication PMC11513854, “De novo GTP synthesis is a metabolic vulnerability for the interception of brain metastases” (Cell Reports Medicine, 2024)

Key:
CRUK0748-BM = assay: Dose-response assay on CRUK0748-BM line; type: cell-based, human
Text: To obtain a clinically relevant correlate to the data aforementioned, we acquired two patient-derived lung adenocarcinoma samples: one that was derived from a patient who developed BM following their primary lung tumor diagnosis (CRUK0748), and one that was derived from a patient who, to-date, has not developed BM (CRUK0733). BM-initiating capacity was confirmed in our PDX models (Figure S1C). We harvested the tagged CRUK0748 cells from the brains of mice and cultured them in stem cell-enrichment media conditions to derive a CRUK0748-BM line.
(§1) Dose-response assays were conducted using the same protocol apart from drugs being plated using 2-fold serial dilutions (20 μM - 39 nM) as previously described.[66] The half maximal inhibitory concentration (IC50) is determined by plotting percent cell viability by the logarithmic concentration of drug. IC80 concentrations will be used for subsequent functional assays (cell proliferation, sphere formation), as determined by the following formula: ICF=100−F/F^1/H×IC50 where F = fraction of maximal response and H = hill slope.

[1] = system: patient-derived lung-BMICs; assay: Intracardiac injection of lung-BMICs, daily oral gavage treatment; type: in vivo, mice; conditions: 100 mg/kg daily oral gavage, vs placebo
Text: We next wondered whether a drug used to slow down, or block, BM needed to be BBB penetrant and aimed to uncover whether MPA could target pre-metastatic BMICs in the circulation in a more clinically relevant in vivo treatment model.
All experimental procedures involving animal work has been reviewed and approved by McMaster University Animal Research Ethics Board. Non-obese diabetic-severe combined immunodeficient IL2r γ ^null (NSG) mice are used for all experiments. Equal numbers of male and female mice were used for all experiments. Healthy mice were 6–8 weeks at time of use. Mice are anesthetized by gas anesthesia using isoflurane (4% induction, 2.5% maintenance) before procedure. Cells were engineered to express firefly luciferase and were injected intracardially, orthotopically, or intracranially as previously described.[13]^,[14]^,[63]^,[64]^,[65] […] Mice are monitored weekly for signs of illness until endpoint.
Fig S3. MPA m ust cross the blood brain barrier to eff ectively slow the progression of BM over tim e, related to Figures 3 and 4. a, Mice were either orthotopically (intratho racically) or intracardiac injected with lung BMICs, […]
to placebo, but (f) had the same number of human cells detected in their brains following humane endpoint by flow cytometry. n.s. = not significant. […]

patient-derived BMICs = assay: Pre-treatment PDX model, intracranial engraftment of lung-BMICs; type: in vivo, mice; conditions: vs placebo
Text: We decided to focus primarily on lung-BM for our in vivo experiments because they account for over 50% of all BM cases. […] This phenotype was also recapitulated in a melanoma-BM PDX model (Figures S2A and S2B).
Comparisons were made via a two-tailed unpaired t test and data are presented as mean ± SD from 4 to 5 technical replicates. p value is indicated. (C) Schematic of experimental timeline. […] IVIS, in vivo imaging system. Comparisons were made via a two-tailed unpaired t test and data are presented as mean ± SD from 4 to 5 technical replicates. p value is indicated. […] Comparisons were made via a log rank (Mantel-Cox) test, p value is indicated. (G) Quantification of human cells in mouse brains by flow cytometry at the humane endpoint. […]
All experimental procedures involving animal work has been reviewed and approved by McMaster University Animal Research Ethics Board. […] Mice are monitored weekly for signs of illness until endpoint.
Bioluminescent imaging was performed using an IVIS Spectrum In Vivo Imaging System (PerkinElmer) as per the manufacturer’s instructions. Imaging and quantification of signals is controlled by the analysis software Living Image (Xenogen). […] Regions of interest were quantified by bioluminescent signal (photons per second) using Living Image software for a standardized comparison between images.

normal brain cells = assay: Dose-response curves of control normal brain cells; type: cell-based, human; conditions: 72-h treatment, same concentrations (below 10 μM)
Text: PrestoBlue readout is normalized to vehicle-treated cells. Data are presented as mean ± SD from 4 technical replicates. (C) Assessment of cell viability of patient-derived BMICs treated with MPA or its vehicle. PrestoBlue readout is normalized to vehicle-treated cells, p < 0.0001. […] Sphere count normalized to vehicle-treated cells, p < 0.0001. (F and G) Percent wound closure of DMSO control vs. MPA-treated cells expressed as an average of replicates (n = 3) and images are taken at 10× magnification. Wound closure (represented by dotted white line) is measured using ImageJ on Incucyte-derived images, p values are indicated. Scale bars are 400 μm. See also Videos S1, S2, S3, and S4. Comparisons of cell viability, sphere formation, and wound closure were made via a two-tailed unpaired t test and data are presented as mean ± SD from 3 to 4 technical replicates. […]
as §1

SMILES: COc1c(C)c2c(c(O)c1C/C=C(\C)CCC(=O)O)C(=O)OC2 [MPA, Mycophenolic acid]
- BMIC proliferation, dose-response (CRUK0748-BM): inhibits BMIC proliferation
- brain tumor burden ([1]; 7 days post-injection): significantly reduced brain tumor burden
- difference in brain tumor burden ([1]; 14 days post-injection): no longer observed
- brain tumor burden (patient-derived BMICs; BMICs pre-treated at IC80, 2 weeks post-injection, IVIS): significantly reduced brain tumor burden
- survival (patient-derived BMICs; BMICs pre-treated at IC80, intracranial engraftment): survived significantly longer
- toxicity to normal brain cells (normal brain cells): nontoxic
